# Reference: PMC5736782, “The Differential Absorption of a Series of P-Glycoprotein Substrates in Isolated Perfused Lungs from Mdr1a/1b Genetic Knockout Mice can be Attributed to Distinct Physico-Chemical Properties: an Insight into Predicting Transporter-Mediated, Pulmonary Specific Disposition” (Pharmaceutical Research, 2017)
# Experiments:
# [1] = Multi-lamellar liposome vesicle (MLV) partitioning; type: physicochemical; conditions: (C0−CS)/C0, 1 μg/mL, 4 h, 37°C, PBS pH 7.4
# Description: MLVs were formed as previously described ([20]). Briefly, solutions of 8 mg phosphatidylcholine and 2 mg phosphatidylglycerol in 10 mL chloroform were completely dried to a lipid film (rotation under vacuum).
# These preparations were then incubated at 37°C for 4 h under shaking conditions to allow equilibration of compound between the lipid and aqueous fractions. The MLVs were then pelleted and 100 μL of supernatant removed for analysis by radiometric or LC-MS/MS methods as described above. Partitioning into the MLVs was determined according to Eq. 3:3 MLVpartitioning=C0−CS/C0
# where C0 is the initial compound concentration (1 μg/mL) and CS is the compound concentration present in the aqueous supernatant at the end of 4 h incubation.
# [2] = Immobilised artificial membrane (IAM) chromatography; type: physicochemical; conditions: extrapolated to 100% water; mean of four experiments
# Description: IAM chromatography provided an experimental measure of substrate membrane affinity and phospholipid interaction. The IAM column (Regis Technologies Inc., Hichrom, Reading, UK; IAM.PC.DD2 10 cm x 4.6 mm ID column) was run under isocratic eluting conditions with the retention of all compounds determined under three mobile phase conditions: 10%, 20% and 30% acetonitrile in water, and from which the theoretical retention time in 100% water was calculated by linear regression. LogK^IAM values were calculated according to Eq. 2:2 LogK^IAM=LogTr−T0/T0
# where Tr and T0 are respectively the retention times of the substrate in 100% water and of the unretained compound, i.e. eluting within the solvent front of 75 s in all experiments.
# [3] = system: P-glycoprotein (Mdr1a/Mdr1b) in isolated perfused mouse lung; test: Isolated perfused mouse lung (IPML) airway-to-perfusate absorption, Mdr1a/1b (+/+) vs (−/−); conditions: for Mdr1a/1b (+/+) ‘F’ estimate by model fit [95% CI) / Mdr1a/1b (-/-) ‘F’ estimate by model fit [95% CI) / Ratio AUCs (-/-) : (+/+) / Mdr1a/1b (+/+) % Deposited Dose absorbed / Mdr1a/1b (-/-) % Deposited Dose absorbed: male, mouse, 50 μM; for Mdr1a/1b (+/+) % Deposited Dose absorbed / Mdr1a/1b (-/-) % Deposited Dose absorbed: 30 min
# Description: The atria and the lower half of the heart were cut to allow the free flow of perfusate. The lungs were removed and suspended vertically in a custom water-jacketed glass thorax (Radleys, Essex, UK) maintained at 37°C.
# Following dosing of compound into the IPML airways serial samples (250 μL) were collected for bioanalysis from the 10 mL recirculating perfusate reservoir. Each sample collected from the reservoir was replaced with an equal volume of fresh warmed, oxygenated perfusate. Upon termination of the experiment the dose solutions, apparatus washings and perfusate samples were collected for mass balance calculations enabling determination of the actual total dose delivered to the lungs.
# Radioactive compounds were directly analysed by liquid scintillation counting. Volumes of 50 μL perfusate samples were mixed with 3 mL of Scintisafe 3 Liquid Scintillation Fluid (Fisher, UK) and transferred to vials for scintillation counting using a TriCarb 2900TR (Packard Bioscience, USA).
# After accounting for the mass of compound removed at each sample point, plots of the cumulative ‘%deposited dose absorbed’ versus ‘time’ were generated and subject to nonlinear regression analysis according to a first-order absorption one-compartment accumulating model (Eq. 1) to generate estimates for the extent (F) and rate (Ka) of absorption from the IPML airways to the recirculating perfusate.
# The data was also subject to standard non-compartmental analysis, specifically Area Under Curve (AUC0–30 min) of ‘%deposited dose absorbed’ versus ‘time’ (units: %Dose.min) and reflecting for the exclusively accumulating perfusate ‘compartment’ the exposure arising from the IPML absorption process alone.
# [4] = system: P-gp (Mdr1a/1b) in mouse intestinal segments; test: Ussing chamber intestinal permeability, ileal segments Mdr1a/1b (+/+) vs (−/−); conditions: for Mdr1a/1b (−/−) Permeability coefficient: P-gp knockout intestinal segments; for Mdr1a/1b (−/−) Permeability coefficient / Mdr1a/1b (+/+) Permeability coefficient: mucosal to serosal, 50 μM, 180 min; for Ratio Permeability (−/−): (+/+): intestinal Papp KO:WT; for Mdr1a/1b (+/+) Permeability coefficient: wild-type intestinal segments
# Description: The bathing fluid for both mucosal and serosal surfaces (3 mL volume in each chamber) comprised oxygenated Krebs-Henseleit buffer maintained at 37°C (heating block) under stirred conditions (gas flow manifold). […] Any intestinal segments presenting an initial TEER of lower than 80 Ω.cm^2 were discarded prior to the experiment, likewise any segments whose TEER decreased by more than 10% over the course of the experiment were excluded.
# Thereafter permeability coefficients were determined according to Eq. 4:4 ρ=dM/dt/A^∗C0
# mouse Bcrp = molecular target: T1, mouse Bcrp (Mus musculus, UniProt Q7TMS5); test: Gentest ABC transporter membrane ATPase assay; type: biochemical; conditions: for Vmax: ATPase, 0 indicates no enzyme turnover
# T1 construct: purchased Corning (Gentest), Germany
# T1 sequence (Q7TMS5 1-657): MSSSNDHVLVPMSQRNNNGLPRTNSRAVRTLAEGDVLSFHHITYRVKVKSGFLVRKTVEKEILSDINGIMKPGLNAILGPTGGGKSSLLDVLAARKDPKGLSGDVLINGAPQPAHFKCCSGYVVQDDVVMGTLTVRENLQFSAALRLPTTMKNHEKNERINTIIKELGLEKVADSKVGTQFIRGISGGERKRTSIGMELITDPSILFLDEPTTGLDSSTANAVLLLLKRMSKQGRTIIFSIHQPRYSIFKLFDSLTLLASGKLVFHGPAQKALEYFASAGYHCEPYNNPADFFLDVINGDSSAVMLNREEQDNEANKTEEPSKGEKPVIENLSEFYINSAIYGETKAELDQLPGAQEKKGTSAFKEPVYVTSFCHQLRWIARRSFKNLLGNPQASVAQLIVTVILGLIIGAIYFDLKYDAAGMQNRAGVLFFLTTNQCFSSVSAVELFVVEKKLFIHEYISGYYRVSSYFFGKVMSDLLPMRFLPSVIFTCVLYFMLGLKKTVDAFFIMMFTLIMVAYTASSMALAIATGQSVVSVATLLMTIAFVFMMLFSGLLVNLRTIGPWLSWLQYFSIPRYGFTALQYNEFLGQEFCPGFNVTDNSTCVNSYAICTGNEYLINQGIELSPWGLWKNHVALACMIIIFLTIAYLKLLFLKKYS
# Description: (§1) The Gentest ATPase assay (Corning, Germany) was used to investigate the binding kinetics of the panel of P-gp substrates against membranes constituted to display human MDR1, mouse Mdr1a, mouse Mdr1b and mouse Bcrp. The assays measure the accumulation of inorganic phosphate (absorbance at 800 nm) produced in the breakdown of ATP to ADP. […] The assays were used in accordance with the manufacturer’s protocol to calculate (GraphPad Prism) the Michaelis-Menten parameters Km and VMAX. For the assay test compounds were serially diluted to produce an assay concentration range of 0–300 μM with the kinetics of ATP turnover examined over 30 min at 37°C.
# [5] = design: method as in PMID 12761811; conditions: nebulised solutions, anaesthetised rats, cited from earlier work
# mouse Mdr1a = mouse Mdr1a (Mus musculus, UniProt P21447); test: Gentest ABC transporter membrane ATPase assay; conditions: 0–300 μM, 30 min, 37°C
# Description: as §1
# mouse Mdr1b = mouse Mdr1b (Mus musculus, UniProt P06795); test: Gentest ABC transporter membrane ATPase assay; conditions: 0–300 μM, 30 min, 37°C
# Description: as §1
# human MDR1 = human MDR1 (Homo sapiens, UniProt P08183); test: Gentest ABC transporter membrane ATPase assay; conditions: ATPase, 0–300 μM, 30 min, 37°C
# Chain of human MDR1 (P08183 whole entry): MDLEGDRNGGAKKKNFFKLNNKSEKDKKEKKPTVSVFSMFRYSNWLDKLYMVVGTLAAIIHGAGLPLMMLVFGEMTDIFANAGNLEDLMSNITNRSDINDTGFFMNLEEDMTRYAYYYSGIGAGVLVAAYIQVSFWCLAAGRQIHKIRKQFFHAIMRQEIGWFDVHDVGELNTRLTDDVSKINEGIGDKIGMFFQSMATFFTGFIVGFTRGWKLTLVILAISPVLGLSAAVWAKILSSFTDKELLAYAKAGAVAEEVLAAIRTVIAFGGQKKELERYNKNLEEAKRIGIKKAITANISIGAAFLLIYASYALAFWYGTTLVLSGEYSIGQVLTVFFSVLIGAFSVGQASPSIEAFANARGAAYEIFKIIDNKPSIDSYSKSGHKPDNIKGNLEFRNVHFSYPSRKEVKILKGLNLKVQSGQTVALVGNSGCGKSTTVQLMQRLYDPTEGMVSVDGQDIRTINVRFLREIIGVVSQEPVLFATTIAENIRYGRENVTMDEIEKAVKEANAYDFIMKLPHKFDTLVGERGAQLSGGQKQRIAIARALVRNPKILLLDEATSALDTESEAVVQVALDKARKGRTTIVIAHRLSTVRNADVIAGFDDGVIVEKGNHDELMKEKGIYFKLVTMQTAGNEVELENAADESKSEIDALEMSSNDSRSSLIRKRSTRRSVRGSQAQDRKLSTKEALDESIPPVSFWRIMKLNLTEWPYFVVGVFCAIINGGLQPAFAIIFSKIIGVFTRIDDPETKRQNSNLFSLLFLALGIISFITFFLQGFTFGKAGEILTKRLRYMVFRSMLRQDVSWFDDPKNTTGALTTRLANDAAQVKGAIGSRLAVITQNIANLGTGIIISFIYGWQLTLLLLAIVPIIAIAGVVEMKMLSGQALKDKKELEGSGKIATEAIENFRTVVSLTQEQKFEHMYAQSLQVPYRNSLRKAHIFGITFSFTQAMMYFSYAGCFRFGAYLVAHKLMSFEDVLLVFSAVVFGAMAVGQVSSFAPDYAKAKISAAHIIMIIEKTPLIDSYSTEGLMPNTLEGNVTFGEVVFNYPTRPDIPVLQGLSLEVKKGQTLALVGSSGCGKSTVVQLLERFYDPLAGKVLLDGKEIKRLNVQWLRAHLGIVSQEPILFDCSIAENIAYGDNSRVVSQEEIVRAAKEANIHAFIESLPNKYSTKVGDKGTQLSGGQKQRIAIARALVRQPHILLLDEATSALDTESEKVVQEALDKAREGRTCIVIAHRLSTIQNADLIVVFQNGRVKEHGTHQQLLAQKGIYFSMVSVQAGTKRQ
# Description: as §1
# Chain of mouse Mdr1a (P21447 whole entry): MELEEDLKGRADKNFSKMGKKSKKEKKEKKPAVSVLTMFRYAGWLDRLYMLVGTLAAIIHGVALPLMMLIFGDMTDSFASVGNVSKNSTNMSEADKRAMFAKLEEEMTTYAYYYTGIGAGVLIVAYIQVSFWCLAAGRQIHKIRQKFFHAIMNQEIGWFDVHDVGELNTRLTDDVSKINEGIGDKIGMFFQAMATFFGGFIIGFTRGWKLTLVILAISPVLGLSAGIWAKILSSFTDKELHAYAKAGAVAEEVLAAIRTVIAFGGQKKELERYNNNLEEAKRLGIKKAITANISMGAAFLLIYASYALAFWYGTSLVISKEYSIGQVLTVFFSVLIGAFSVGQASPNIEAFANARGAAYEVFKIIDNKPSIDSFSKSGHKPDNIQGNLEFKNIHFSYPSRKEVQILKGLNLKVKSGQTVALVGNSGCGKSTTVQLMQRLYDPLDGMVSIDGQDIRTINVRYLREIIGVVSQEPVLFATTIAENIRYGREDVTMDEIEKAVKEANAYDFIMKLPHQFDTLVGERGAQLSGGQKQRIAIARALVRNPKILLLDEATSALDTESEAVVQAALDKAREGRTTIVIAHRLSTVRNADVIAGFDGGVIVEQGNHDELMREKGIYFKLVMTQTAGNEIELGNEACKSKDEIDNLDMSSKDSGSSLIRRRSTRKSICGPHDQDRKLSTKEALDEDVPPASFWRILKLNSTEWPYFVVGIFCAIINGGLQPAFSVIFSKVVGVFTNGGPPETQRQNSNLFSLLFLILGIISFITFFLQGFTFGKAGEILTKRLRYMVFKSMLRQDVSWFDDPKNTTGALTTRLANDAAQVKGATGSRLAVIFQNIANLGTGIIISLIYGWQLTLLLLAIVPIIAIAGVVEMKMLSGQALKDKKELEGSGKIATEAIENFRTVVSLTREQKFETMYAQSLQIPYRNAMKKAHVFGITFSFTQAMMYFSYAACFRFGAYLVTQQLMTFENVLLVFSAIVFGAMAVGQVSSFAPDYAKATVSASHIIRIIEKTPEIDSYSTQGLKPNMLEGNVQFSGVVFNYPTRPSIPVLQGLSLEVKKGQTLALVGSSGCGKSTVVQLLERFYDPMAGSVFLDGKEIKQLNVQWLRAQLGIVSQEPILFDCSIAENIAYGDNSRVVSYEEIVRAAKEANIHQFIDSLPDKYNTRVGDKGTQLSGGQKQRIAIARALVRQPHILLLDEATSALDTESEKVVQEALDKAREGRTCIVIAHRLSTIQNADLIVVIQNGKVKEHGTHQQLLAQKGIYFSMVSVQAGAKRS
# Chain of mouse Mdr1b (P06795 whole entry): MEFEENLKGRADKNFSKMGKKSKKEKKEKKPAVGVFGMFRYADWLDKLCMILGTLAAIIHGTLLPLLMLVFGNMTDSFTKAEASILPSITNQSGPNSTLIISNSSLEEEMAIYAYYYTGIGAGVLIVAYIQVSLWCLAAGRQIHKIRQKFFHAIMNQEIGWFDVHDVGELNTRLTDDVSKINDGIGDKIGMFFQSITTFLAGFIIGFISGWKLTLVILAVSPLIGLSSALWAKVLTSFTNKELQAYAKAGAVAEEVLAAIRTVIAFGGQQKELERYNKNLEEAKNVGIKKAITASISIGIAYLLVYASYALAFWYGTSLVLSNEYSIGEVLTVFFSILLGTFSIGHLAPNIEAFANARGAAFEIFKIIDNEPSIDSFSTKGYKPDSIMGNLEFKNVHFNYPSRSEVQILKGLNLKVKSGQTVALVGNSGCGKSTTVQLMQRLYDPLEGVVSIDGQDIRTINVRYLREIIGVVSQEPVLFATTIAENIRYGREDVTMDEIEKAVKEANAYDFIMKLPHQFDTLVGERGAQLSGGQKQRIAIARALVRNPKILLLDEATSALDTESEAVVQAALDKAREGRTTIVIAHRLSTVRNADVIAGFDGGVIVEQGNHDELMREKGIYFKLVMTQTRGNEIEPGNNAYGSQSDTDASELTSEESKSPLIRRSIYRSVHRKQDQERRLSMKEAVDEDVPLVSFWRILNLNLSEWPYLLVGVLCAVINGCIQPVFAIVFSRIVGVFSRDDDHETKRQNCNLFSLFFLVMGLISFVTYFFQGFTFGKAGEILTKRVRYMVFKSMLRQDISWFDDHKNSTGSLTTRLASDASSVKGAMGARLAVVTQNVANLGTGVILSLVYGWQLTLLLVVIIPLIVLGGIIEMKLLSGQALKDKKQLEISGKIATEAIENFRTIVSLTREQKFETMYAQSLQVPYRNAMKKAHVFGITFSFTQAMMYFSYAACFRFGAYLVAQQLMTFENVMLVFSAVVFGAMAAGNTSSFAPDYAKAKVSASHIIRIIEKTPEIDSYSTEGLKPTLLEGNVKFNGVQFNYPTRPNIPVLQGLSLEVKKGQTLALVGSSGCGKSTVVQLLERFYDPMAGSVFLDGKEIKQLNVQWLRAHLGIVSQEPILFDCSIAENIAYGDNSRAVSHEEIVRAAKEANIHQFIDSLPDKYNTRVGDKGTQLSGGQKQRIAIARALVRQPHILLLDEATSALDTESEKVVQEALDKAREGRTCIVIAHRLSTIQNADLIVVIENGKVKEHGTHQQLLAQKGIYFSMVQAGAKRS
SMILES,MLV Partitioning [1],LogK^IAM [2],Group (impact of Mdr1a/1b knockout on IPML absorption) [3],Mdr1a/1b (+/+) ‘F’ estimate by model fit [95% CI) [3],Mdr1a/1b (-/-) ‘F’ estimate by model fit [95% CI) [3],Ratio AUCs (-/-) : (+/+) [3],Mdr1a/1b (+/+) % Deposited Dose absorbed [3],Mdr1a/1b (-/-) % Deposited Dose absorbed [3],Mdr1a/1b (−/−) Permeability coefficient [4],Ratio Permeability (−/−): (+/+) [4],Mdr1a/1b (+/+) Permeability coefficient [4],Vmax (mouse Bcrp),extent of pulmonary absorption ([5]; mM concentrations),t^1/2absorption [5],Vmax (mouse Mdr1a),Vmax (mouse Mdr1b),Vmax (human MDR1),interaction with Bcrp (ATP turnover) (mouse Bcrp; mouse Bcrp membrane model)
"O=c1[nH]c2ccccc2n1CCCN1CCC(n2c(=O)[nH]c3cc(Cl)ccc32)CC1 [Domperidone, domperidone]",0.92,1.33,,,,,,,,,,,,,,,,
"CN1CCC[C@@H]1Cc1c[nH]c2ccc(CCS(=O)(=O)c3ccccc3)cc12 [Eletriptan, eletriptan]",0.94,1.46,GROUP B,18.5 [16.5 to 20.5],25.8 [23.6 to 27.9],1.39,17.9%,26.6%,11.04 ± 2.17 cm/s (x10^−6),2.26,4.90 ± 2.51 cm/s (x10^−6),0 µM/min,,,,,,
CCCCc1nc(Cl)c(CO)n1Cc1ccc(-c2ccccc2-c2nn[nH]n2)cc1 [losartan],,,,,,,,,,,,,92%,5 min,,,,
"CC[C@H]1OC(=O)[C@H](C)[C@@H](O[C@H]2C[C@@](C)(OC)[C@@H](O)[C@H](C)O2)[C@H](C)[C@@H](O[C@@H]2O[C@H](C)C[C@H](N(C)C)[C@H]2O)[C@](C)(O)C[C@@H](C)C(=O)[C@H](C)[C@@H](O)[C@]1(C)O [Erythromycin, erythromycin]",0.46,0.88,GROUP A,,,,55.5%,54.1%,13.70 ± 4.54 cm/s (x10^−6),,3.02 ± 1.15 cm/s (x10^−6),0 µM/min,,,28.4 µM/min,48.5 µM/min,,
"COc1ccc(C[C@H](N)C(=O)N[C@H]2[C@@H](O)[C@H](n3cnc4c(N(C)C)ncnc43)O[C@@H]2CO)cc1 [Puromycin, puromycin]",0.62,1.31,GROUP A,48.2 [43.7 to 52.8],56.1 [48.1 to 64.1],1.01,46.9%,49.3%,14.95 ± 2.33 cm/s (x10^−6),2.56,5.83 ± 2.38 cm/s (x10^−6),0 µM/min,,,16.5 µM/min,31.5 µM/min,19.6 µM/min,
"CCc1cc2c(cc1CC)CC(NC[C@H](O)c1ccc(O)c3[nH]c(=O)ccc13)C2 [Indacaterol, indacaterol]",0.92,1.23,GROUP B,29.3 [25.5 to 33.1],40.6 [36.7 to 44.5],1.37,27.6%,37.3%,29.22 ± 4.40 cm/s (x10^−6),1.92,15.2 ± 2.79 cm/s (x10^−6),0 µM/min,,,119 µM/min,132 µM/min,81.1 µM/min,
"O=C1c2c(O)ccc(O)c2C(=O)c2c(NCCNCCO)ccc(NCCNCCO)c21 [Mitoxantrone, mitoxantrone]",0.59,1.13,GROUP A,26.4 [21.9 to 30.9],24.9 [20.8 to 28.9],,25.1%,23.3%,13.70 ± 2.69 cm/s (x10^−6),,4.69 ± 1.06 cm/s (x10^−6),4.79 µM/min,,,27.5 µM/min,35.0 µM/min,,showed evidence of interactions with Bcrp
"OCc1cc(C(O)CNCCCCCCOCCCCc2ccccc2)ccc1O (centres unmarked) [Salmeterol, salmeterol]",0.80,1.60,GROUP B,42.9 [34.6 to 47.2],57.3 [48.3 to 66.3],1.37,36.7%,48.7%,18.33 ± 2.38 cm/s (x10^−6),1.16,15.8 ± 2.16 cm/s (x10^−6),0 µM/min,,,27.5 µM/min,38.2 µM/min,24.4 µM/min,
"CCN(CC)CCCC(C)Nc1ccnc2cc(Cl)ccc12 (centres unmarked) [Chloroquine, chloroquine]",,1.43,,,,,,,23.39 ± 4.18 cm/s (x10^−6),,,,,,,,,
